In the supplement of paper PMC4932681:
Structures can show the parent of a compound that is named as a salt.

Key:
BT-474 [1] = experiment: drug sensitivity score (DSS) (DSS (dimensionless)); higher = more sensitive; extreme values may be limits of the assay; conditions: 72 h
Description: (§1)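 FIMM FO2B library drugs were tested at 5 concentrations (10,000-fold range) for 72 h, with CellTiter-Glo viability normalised to DMSO and benzethonium chloride controls. The Drug Sensitivity Score (DSS) is computed from the fitted logistic dose-response curve (area-based; 0 = inactive). Resistant lines and the 'in 1µM tamoxifen' arms were tested in 1 µM 4-OH-tamoxifen.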

ZR-75-1 Tam1 [2] = experiment: as above; conditions: 4-OH-tamoxifen in medium 1 µM; 72 h
Description: as §1

T-47D Tam1 [3] = experiment: as above; conditions: 4-OH-tamoxifen in medium 1 µM; 72 h
Description: as §1

ZR-75-1 Tam2 [4] = experiment: as above; conditions: 4-OH-tamoxifen in medium 1 µM; 72 h
Description: as §1

T-47D Tam2 [5] = experiment: as above; conditions: 4-OH-tamoxifen in medium 1 µM; 72 h
Description: as §1

MCF-7 Tam1 = experiment: as above; conditions: 4-OH-tamoxifen in medium 1 µM; 72 h
Description: as §1

BT-474 Tam2 [6] = experiment: as above; conditions: 4-OH-tamoxifen in medium 1 µM; 72 h
Description: as §1

ZR-75-1 [7] = experiment: as above; conditions: 72 h
Description: as §1

T-47D [8] = experiment: as above; conditions: 72 h
Description: as §1

BT-474 Tam1 [9] = experiment: as above; conditions: 4-OH-tamoxifen in medium 1 µM; 72 h
Description: as §1

MCF-7 [10] = experiment: as above; conditions: 72 h
Description: as §1

BT-474 [11] = experiment: relative IC50 (midpoint of fitted logistic curve, plateau may be below 50% inhibition; CellTiter-Glo viability); higher = less potent; conditions: 72 h
Description: (§2)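 FIMM FO2B library drugs were plated at 5 concentrations spanning a 10,000-fold range in 384-well plates. Cells were incubated for 72 h at 37 °C and viability was read by CellTiter-Glo, normalised to DMSO (0% inhibition) and 100 µM benzethonium chloride (100% inhibition). IC50 values come from logistic dose-response fits (Breeze pipeline). Tamoxifen-resistant lines and the 'in 1µM tamoxifen' parental arms were tested in medium with 1 µM 4-OH-tamoxifen.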

T-47D Tam1 [12] = experiment: as above; conditions: 4-OH-tamoxifen in medium 1 µM; 72 h
Description: as §2

T-47D Tam2 [13] = experiment: as above; conditions: 4-OH-tamoxifen in medium 1 µM; 72 h
Description: as §2

BT-474 Tam2 [14] = experiment: as above; conditions: 4-OH-tamoxifen in medium 1 µM; 72 h
Description: as §2

T-47D [15] = experiment: as above; conditions: 72 h
Description: as §2

BT-474 Tam1 [16] = experiment: as above; conditions: 4-OH-tamoxifen in medium 1 µM; 72 h
Description: as §2

MCF-7 [17] = experiment: as above; conditions: 72 h
Description: as §2

ZR-75-1 [18] = experiment: as above; conditions: 72 h
Description: as §2

ZR-75-1 Tam1 [19] = experiment: as above; conditions: 4-OH-tamoxifen in medium 1 µM; 72 h
Description: as §2

ZR-75-1 Tam2 [20] = experiment: as above; conditions: 4-OH-tamoxifen in medium 1 µM; 72 h
Description: as §2

Row | SMILES | drug sensitivity score (BT-474 [1]; 4-OH-tamoxifen in medium 0 µM) | drug sensitivity score (BT-474 [1]; 4-OH-tamoxifen in medium 1 µM) | drug sensitivity score (ZR-75-1 Tam1 [2]) | drug sensitivity score (T-47D Tam1 [3]) | drug sensitivity score (ZR-75-1 Tam2 [4]) | drug sensitivity score (T-47D Tam2 [5]) | drug sensitivity score (MCF-7 Tam1) | drug sensitivity score (BT-474 Tam2 [6]) | drug sensitivity score (ZR-75-1 [7]; 4-OH-tamoxifen in medium 0 µM) | drug sensitivity score (ZR-75-1 [7]; 4-OH-tamoxifen in medium 1 µM) | drug sensitivity score (T-47D [8]; 4-OH-tamoxifen in medium 0 µM) | drug sensitivity score (T-47D [8]; 4-OH-tamoxifen in medium 1 µM) | drug sensitivity score (BT-474 Tam1 [9]) | drug sensitivity score (MCF-7 [10]; 4-OH-tamoxifen in medium 0 µM) | drug sensitivity score (MCF-7 [10]; 4-OH-tamoxifen in medium 1 µM) | relative IC50 (BT-474 [11]; 4-OH-tamoxifen in medium 0 µM) [nM] | relative IC50 (BT-474 [11]; 4-OH-tamoxifen in medium 1 µM) [nM] | relative IC50 (T-47D Tam1 [12]) [nM] | relative IC50 (T-47D Tam2 [13]) [nM] | relative IC50 (BT-474 Tam2 [14]) [nM] | relative IC50 (T-47D [15]; 4-OH-tamoxifen in medium 0 µM) [nM] | relative IC50 (T-47D [15]; 4-OH-tamoxifen in medium 1 µM) [nM] | relative IC50 (BT-474 Tam1 [16]) [nM] | relative IC50 (MCF-7 [17]; 4-OH-tamoxifen in medium 0 µM) [nM] | relative IC50 (MCF-7 [17]; 4-OH-tamoxifen in medium 1 µM) [nM] | relative IC50 (ZR-75-1 [18]; 4-OH-tamoxifen in medium 0 µM) [nM] | relative IC50 (ZR-75-1 [18]; 4-OH-tamoxifen in medium 1 µM) [nM] | relative IC50 (ZR-75-1 Tam1 [19]) [nM] | relative IC50 (ZR-75-1 Tam2 [20]) [nM]
1 | CC(=O)OC[C@H]1O[C@@H]([S-])[C@H](OC(C)=O)[C@@H](OC(C)=O)[C@@H]1OC(C)=O.CCP(CC)CC.[Au+] [Auranofin] | 3.43 | 4.22 | 0.421 | 11.5 | 0.324 | 4.19 | 1.48 | 3.68 | 0.254 | 1.38 | 1.36 | 4.22 | 5 | 6.78 | 2.93 | 719 | 1020 | 65.3 | 584 | 785 | 804 | 223 | 853 | 561 | 376 | – | – | – | –
2 | CCc1cncnc1N1CCN(Cc2nc3ccc(C(F)(F)F)cc3[nH]2)CC1 | 1.64 | 2.18 | 0.834 | 2.79 | 1.31 | 1.89 | 0.774 | 2.05 | 0.27 | 1.12 | 2.8 | 0.435 | 3.7 | 1.96 | 2.72 | 3300 | 4060 | 1570 | 2310 | 3220 | 1530 | – | 3230 | 2920 | 1100 | – | – | – | –
3 | CC/C(=C(\c1ccccc1)c1ccc(OCCN(C)C)cc1)c1ccccc1 [Tamoxifen citrate] | 1.53 | 5.05 | 0.0116 | 0.576 | 0.865 | 2.54 | 0.973 | 4.61 | 0 | 1.69 | 0 | 0 | 6.73 | 0 | 3.99 | 3470 | 3200 | – | 3290 | 3610 | > 10000 | – | 2390 | – | 3480 | > 10000 | 3540 | – | –
4 | C[C@]12O[C@H](C[C@]1(O)CO)n1c3ccccc3c3c4c(c5c6ccccc6n2c5c31)CNC4=O [Lestaurtinib] | 0.345 | 3.7 | 0 | 0 | 0.0147 | 0 | 0.391 | 0.589 | 0 | 0 | 0 | 0.579 | 2.16 | 0.382 | 0 | – | 160 | > 1000 | > 1000 | – | > 1000 | – | 349 | – | > 1000 | > 1000 | – | > 1000 | –
5 | COc1cc2ncnc(Nc3ccc(F)c(Cl)c3)c2cc1OCCCN1CCOCC1 [Gefitinib] | 9.4 | 22.7 | 1.51 | 0 | 1.16 | 4.57 | 0 | 20.3 | 0.0359 | 1.45 | 0.0062 | 0 | 24.9 | 2.5 | 1.2 | 1030 | 115 | > 10000 | 1410 | 176 | – | > 10000 | 65.4 | – | 4190 | – | – | – | –
6 | C#Cc1cccc(Nc2ncnc3cc(OCCOC)c(OCCOC)cc23)c1 [Erlotinib] | 3.4 | 9.97 | 0.136 | 3.91 | 0.0461 | 5.31 | 0.0215 | 7.08 | 0 | 0.0315 | 0.57 | 0 | 9.3 | 0 | 0 | 1770 | 1250 | 1230 | 370 | 1960 | – | > 10000 | 1370 | > 10000 | > 10000 | > 10000 | – | – | –
7 | CCC/C=C/C=C/C(=O)O[C@H]1/C(=C/C(=O)OC)C[C@H]2C[C@H]([C@@H](C)O)OC(=O)C[C@H](O)C[C@@H]3C[C@H](OC(C)=O)C(C)(C)[C@](O)(C[C@@H]4C/C(=C/C(=O)OC)C[C@H](/C=C/C(C)(C)[C@]1(O)O2)O4)O3 [Bryostatin 1] | 0 | 0 | 1.05 | 0.0014 | 0 | 0 | 1.73 | 0 | 0.213 | 0 | 0 | 0 | 0 | 1.22 | 0.563 | > 100 | > 100 | – | > 100 | > 100 | > 100 | > 100 | > 100 | – | – | – | > 100 | – | > 100
8 | CN(Cc1cnc2nc(N)nc(N)c2n1)c1ccc(C(=O)N[C@@H](CCC(=O)O)C(=O)O)cc1 [Methotrexate] | 0 | 0 | 1.07 | 0 | 0.0419 | 0 | 0 | 0 | 6.76 | 0 | 0 | 0 | 0 | 0.338 | 3.04 | > 10000 | > 10000 | > 10000 | > 10000 | > 10000 | > 10000 | > 10000 | > 10000 | – | – | 197 | > 10000 | – | –
